Assay results as given in patent publication USRE28744E, “Crystalline p-hydroxyampicillin and salts thereof” (priority 1968, dated 1976).
Converted amounts (≈) assume the structure as drawn. Each block holds one compound with its values, some of them ahead of it.

Columns and labels:
Kleb. pneum = test: in vitro antibacterial screening, M.I.C., Kleb. pneum; assay type: cell-based
Source text: (§1) The four resulting hydroxypenicillins were then submitted to in vitro antibacterial screening in comparison with the two epimers of α-aminobenzylpenicillin.

E.Coli = test: in vitro antibacterial screening, M.I.C., E.Coli; assay type: cell-based; conditions: for MIC: Escherichia coli
Source text: as §1

Proteus mirabilis = test: in vitro antibacterial screening, M.I.C., Proteus mirabilis; assay type: cell-based
Source text: as §1

clinical = conditions: human, urine, po, 500 mg
Procedure: (§2) The two penicillins were then compared with ampicillin in absorption studies in human volunteers. Groups of fasting volunteers were each given 500 mg. of the appropriate penicillin by mouth in capsules, and blood samples were withdrawn at regular intervals and assayed biologically to determine the serum concentration of the penicillins. The urine was also collected over a 6 hour period and similarly assayed to determine the proportion of the dose excreted via the kidneys.

Shigella flexneri = test: in vitro antibacterial screening, M.I.C., Shigella flexneri; assay type: cell-based; conditions: for MIC: Shigella flexneri
Source text: as §1

[1] = absorption studies in human volunteers (oral); conditions: serum, 500 mg
Procedure: as §2

Salm. typhi = test: in vitro antibacterial screening, M.I.C., Salm. typhi; assay type: cell-based; conditions: for M.I.C. Salm. typhi: in vitro; for MIC: Salmonella enterica, TYPHI, read-out: M.I.C. Salm. typhi, in vitro
Source text: as §1

Gram-negative bacteria = conditions: 100 μg./ml.
Procedure: (§3) Results were obtained by serial dilution in nutrient agar. The inoculum was one drop of an overnight broth culture, and M.I.C. values were read after 18 hours at 37°C.

Proteus vulgaris K = test: serial dilution in nutrient agar, synergy M.I.C., Proteus vulgaris K; assay type: cell-based
Procedure: as §3

E. coli 37 = test: serial dilution in nutrient agar, synergy M.I.C., E. coli 37; assay type: cell-based; conditions: in the presence of 100 μg./ml. Nafcillin
Procedure: as §3

Klebsiella C 978 = test: serial dilution in nutrient agar, synergy M.I.C., Klebsiella C 978; assay type: cell-based
Procedure: as §3

Paracolon 232 = test: serial dilution in nutrient agar, synergy M.I.C., Paracolon 232; assay type: cell-based; conditions: in the presence of 100 μg./ml. Methicillin
Procedure: as §3

Proteus morganii G = test: serial dilution in nutrient agar, synergy M.I.C., Proteus morganii G; assay type: cell-based
Procedure: as §3

Staph. Oxford = test: inhibition of Staph. Oxford; assay type: cell-based; conditions: product contaminated with approximately 5% of 6-aminopenicillanic acid; read-out: concentration inhibiting Staph. Oxford
E. coli 2 = test: inhibition of E. coli 2; assay type: cell-based; conditions: Escherichia coli, product contaminated with approximately 5% of 6-aminopenicillanic acid, read-out: concentration inhibiting E. coli 2
[2] = comparison within series; cited from earlier work
[3] = in the presence of 100 μg./ml. Dicloxacillin
[4] = in the presence of 100 μg./ml. Flucloxacillin
[5] = in the presence of 100 μg./ml. Methicillin

SMILES: CC1(C)S[C@@H]2C(NC(=O)C(N)c3cccc(O)c3)C(=O)N2[C@H]1C(=O)O (stereo partly drawn) [Example 7, 6[(-)α-amino-m-hydroxyphenylacetamido]penicillanic Acid]
- M.I.C. Kleb. pneum (Kleb. pneum; listed as m OH -): 1.25 µg/mL
- M.I.C. E.Coli (E.Coli; listed as m OH -): 5 µg/mL
- M.I.C. Proteus mirabilis (Proteus mirabilis; listed as m OH -): 2.5 µg/mL
- dose excreted at 6 h (clinical): 31%
- M.I.C. Shigella flexneri (Shigella flexneri; listed as m OH -): 2.5 µg/mL
- concentration at 0.5 h [1]: 910 ng/mL
- concentration at 1 h [1]: 2500 ng/mL
- concentration at 2 h [1]: 2860 ng/mL
- concentration at 4 h [1]: 1150 ng/mL
- concentration at 6 h [1]: 440 ng/mL
- M.I.C. Salm. typhi (Salm. typhi; listed as m OH -): 1.25 µg/mL

SMILES: CCOc1ccc2ccccc2c1C(=O)N[C@@H]1C(=O)N2[C@@H]1SC(C)(C)[C@@H]2C(=O)O [nafcillin]
- inhibition of the Gram-negative bacteria by the penicillinase-resistant penicillin by itself (Gram-negative bacteria): None of these penicillinase-resistant penicillins by itself inhibits the Gram-negative bacteria at 100 μg./ml.

SMILES: CC1(C)S[C@@H]2C(NC(=O)C(N)c3cccc(O)c3)C(=O)N2[C@H]1C(=O)O (stereo partly drawn) [Example 8, 6[(+)α-amino-m-hydroxyphenylacetamido]penicillanic Acid]
- M.I.C. Kleb. pneum (Kleb. pneum; listed as m OH +): 12.5 µg/mL
- M.I.C. E.Coli (E.Coli; listed as m OH +): 25 µg/mL
- M.I.C. Proteus mirabilis (Proteus mirabilis; listed as m OH +): 25 µg/mL
- M.I.C. Shigella flexneri (Shigella flexneri; listed as m OH +): 25 µg/mL
- M.I.C. Salm. typhi (Salm. typhi; listed as m OH +): 12.5 µg/mL

SMILES: CC1(C)S[C@@H]2[C@H](NC(=O)[C@H](N)c3ccccc3)C(=O)N2[C@H]1C(=O)O [Ampicillin, D(-)-epimer of α-aminobenzyl penicillin]
- MIC (Kleb. pneum): 2.5 µg/mL (≈ 7.15 µM)
- MIC (E.Coli): 5 µg/mL (≈ 14.3 µM)
- MIC (Proteus mirabilis; Proteus mirabilis): 1.25 µg/mL (≈ 3.58 µM)
- dose excreted at 6 h (clinical): 42%
- MIC (Shigella flexneri): 12.5 µg/mL (≈ 35.8 µM)
- MIC (Salm. typhi): 0.6 µg/mL (≈ 1.72 µM)

SMILES: CC1(C)S[C@@H]2[C@H](NC(=O)[C@H](N)c3ccc(O)cc3)C(=O)N2[C@H]1C(=O)O [Example 3, 6-[(-)α-amino-p-hydroxyphenylacetamido]Penicillanic Acid]
- MIC (E.Coli): 5 µg/mL (≈ 13.7 µM)
- Minimum inhibitory concentration, Proteus vulgaris K (Proteus vulgaris K; None (alone), 18 hours at 37°C): 250 µg/mL
- Minimum inhibitory concentration, Proteus vulgaris K (Proteus vulgaris K; [3]): 2.5 µg/mL
- Minimum inhibitory concentration, Proteus vulgaris K (Proteus vulgaris K; [4]): 5.0 µg/mL
- Minimum inhibitory concentration, Proteus vulgaris K (Proteus vulgaris K; [5]): 50 µg/mL
- Minimum inhibitory concentration, E. coli 37 (E. coli 37): 2.5 µg/mL
- dose excreted at 6 h (clinical): 74.5%
- MIC (Shigella flexneri): 2.5 µg/mL (≈ 6.84 µM)
- concentration at 0.5 h [1]: 2900 ng/mL
- concentration at 1 h [1]: 8250 ng/mL
- concentration at 2 h [1]: 10800 ng/mL
- concentration at 4 h [1]: 3100 ng/mL
- concentration at 6 h [1]: 1130 ng/mL
- Minimum inhibitory concentration, Klebsiella C 978 (Klebsiella C 978; None (alone), 18 hours at 37°C): 250 µg/mL
- Minimum inhibitory concentration, Klebsiella C 978 (Klebsiella C 978; in the presence of 100 μg./ml. Cloxacillin): 50 µg/mL
- Minimum inhibitory concentration, Klebsiella C 978 (Klebsiella C 978; [3]): 50 µg/mL
- Minimum inhibitory concentration, Klebsiella C 978 (Klebsiella C 978; [4]): 25 µg/mL
- Minimum inhibitory concentration, Klebsiella C 978 (Klebsiella C 978; [5]): 50 µg/mL
- Minimum inhibitory concentration, Klebsiella C 978 (Klebsiella C 978; in the presence of 100 μg./ml. Nafcillin): 50 µg/mL
- Minimum inhibitory concentration, Paracolon 232 (Paracolon 232): 2.5 µg/mL
- Minimum inhibitory concentration, Proteus morganii G (Proteus morganii G; None (alone), 18 hours at 37°C): 250 µg/mL
- Minimum inhibitory concentration, Proteus morganii G (Proteus morganii G; [3]): 5.0 µg/mL
- Minimum inhibitory concentration, Proteus morganii G (Proteus morganii G; [4]): 5.0 µg/mL

SMILES: CC1(C)S[C@@H]2[C@H](NC(=O)[C@@H](N)c3ccccc3)C(=O)N2[C@H]1C(=O)O [None +, reference compound]
- MIC (Kleb. pneum): 5 µg/mL (≈ 14.3 µM)
- MIC (E.Coli): 12.5 µg/mL (≈ 35.8 µM)
- MIC (Salm. typhi): 2.5 µg/mL (≈ 7.15 µM)

SMILES: Cc1onc(-c2ccccc2Cl)c1C(=O)N[C@@H]1C(=O)N2[C@@H]1SC(C)(C)[C@@H]2C(=O)O [cloxacillin]
- inhibition of the Gram-negative bacteria by the penicillinase-resistant penicillin by itself (Gram-negative bacteria): None of these penicillinase-resistant penicillins by itself inhibits the Gram-negative bacteria at 100 μg./ml.

SMILES: CC1(C)S[C@@H]2[C@H](NC(=O)[C@@H](N)c3ccc(O)cc3)C(=O)N2[C@H]1C(=O)O [Example 4, 6[(+)α-amino-p-hydroxyphenylacetamido]penicillanic Acid]
- MIC (E.Coli): 25 µg/mL (≈ 68.4 µM)

SMILES: COc1cccc(OC)c1C(=O)N[C@@H]1C(=O)N2[C@@H]1SC(C)(C)[C@@H]2C(=O)O [methicillin]
- inhibition of the Gram-negative bacteria by the penicillinase-resistant penicillin by itself (Gram-negative bacteria): None of these penicillinase-resistant penicillins by itself inhibits the Gram-negative bacteria at 100 μg./ml.

- MIC (Staph. Oxford): 0.1 µg/mL (≈ 0.2 µM)
- MIC (E. coli 2): 5 µg/mL (≈ 10 µM)
SMILES: CC1(C)S[C@@H]2[C@H](NC(=O)[C@H](N)c3ccc(OC(=O)OCc4ccccc4)cc3)C(=O)N2[C@H]1C(=O)O [Example 12, 6-[(-)-α-amino-α-(p-benzyloxycarbonyloxyphenyl)-acetamido]penicillanic acid]

SMILES: Cc1onc(-c2c(Cl)cccc2Cl)c1C(=O)N[C@@H]1C(=O)N2[C@@H]1SC(C)(C)[C@@H]2C(=O)O [dicloxacillin]
- inhibition of the Gram-negative bacteria by the penicillinase-resistant penicillin by itself (Gram-negative bacteria): None of these penicillinase-resistant penicillins by itself inhibits the Gram-negative bacteria at 100 μg./ml.
- oral absorption of known penicillins (in words) [2]: better absorbed than cloxacillin

SMILES: Cc1onc(-c2c(F)cccc2Cl)c1C(=O)N[C@@H]1C(=O)N2[C@@H]1SC(C)(C)[C@@H]2C(=O)O [flucloxacillin]
- inhibition of the Gram-negative bacteria by the penicillinase-resistant penicillin by itself (Gram-negative bacteria): None of these penicillinase-resistant penicillins by itself inhibits the Gram-negative bacteria at 100 μg./ml.
